{
  "source": "PubChem BioAssay AID1259407",
  "about": "(Chemical Carcinogenesis Research Information System (CCRIS), 2018)",
  "test_system": "CCRIS mutagenicity, Ames/micronucleus/aberration tests",
  "assay": "CCRIS mutagenicity studies",
  "key": {"[1]": {"conditions": "Test System: AMES SALMONELLA TYPHIMURIUM, Strain/Indicator: TA98, Metabolic Activation: NONE, Method: STANDARD PLATE"}, "[2]": {"conditions": "Test System: AMES SALMONELLA TYPHIMURIUM, Strain/Indicator: TA100, Metabolic Activation: NONE, Method: STANDARD PLATE"}, "[3]": {"conditions": "Test System: AMES SALMONELLA TYPHIMURIUM, Strain/Indicator: TA98, Metabolic Activation: RAT, LIVER, S-9, AROCLOR 1254, Method: STANDARD PLATE"}},
  "note": "Activity calls are given as the source filed them. No rule for the calls is given here.",
  "data": [
    {"compound": "CCOC(=O)CNC(=O)CCCCSc1ncnc2nc[nH]c12", "values": [
      {"measurement": "mutagenic call", "setting": "Test System: AMES SALMONELLA TYPHIMURIUM, Strain/Indicator: TA97, Metabolic Activation: NONE, Method: STANDARD PLATE", "value": "inactive; negative"},
      {"measurement": "mutagenic call", "setting": "Test System: AMES SALMONELLA TYPHIMURIUM, Strain/Indicator: TA97, Metabolic Activation: RAT, LIVER, S-9, PHENOBARBITAL AND ALPHA-NAPHTHOFLAVONE, Method: STANDARD PLATE", "value": "inactive; negative"},
      {"measurement": "mutagenic call", "setting": "[1]", "value": "inactive; negative"},
      {"measurement": "mutagenic call", "setting": "Test System: AMES SALMONELLA TYPHIMURIUM, Strain/Indicator: TA98, Metabolic Activation: RAT, LIVER, S-9, PHENOBARBITAL AND ALPHA-NAPHTHOFLAVONE, Method: STANDARD PLATE", "value": "inactive; negative"},
      {"measurement": "mutagenic call", "setting": "[2]", "value": "inactive; negative"},
      {"measurement": "mutagenic call", "setting": "Test System: AMES SALMONELLA TYPHIMURIUM, Strain/Indicator: TA100, Metabolic Activation: RAT, LIVER, S-9, PHENOBARBITAL AND ALPHA-NAPHTHOFLAVONE, Method: STANDARD PLATE", "value": "inactive; negative"},
      {"measurement": "mutagenic call", "setting": "Test System: AMES SALMONELLA TYPHIMURIUM, Strain/Indicator: TA1535, Metabolic Activation: NONE, Method: STANDARD PLATE", "value": "inactive; negative"},
      {"measurement": "mutagenic call", "setting": "Test System: AMES SALMONELLA TYPHIMURIUM, Strain/Indicator: TA1535, Metabolic Activation: RAT, LIVER, S-9, PHENOBARBITAL AND ALPHA-NAPHTHOFLAVONE, Method: STANDARD PLATE", "value": "inactive; negative"}
    ]},
    {"compound": "COc1nncc2cnccc12", "values": [
      {"measurement": "mutagenic call", "setting": "Test System: AMES SALMONELLA TYPHIMURIUM, Strain/Indicator: TA98, Metabolic Activation: NONE, Method: PREINCUBATION", "value": "inactive; negative"},
      {"measurement": "mutagenic call", "setting": "Test System: AMES SALMONELLA TYPHIMURIUM, Strain/Indicator: TA98, Metabolic Activation: RAT, LIVER, S-9, PCB, Method: PREINCUBATION", "value": "inactive; negative"},
      {"measurement": "mutagenic call", "setting": "Test System: AMES SALMONELLA TYPHIMURIUM, Strain/Indicator: TA100, Metabolic Activation: NONE, Method: PREINCUBATION", "value": "inactive; negative"},
      {"measurement": "mutagenic call", "setting": "Test System: AMES SALMONELLA TYPHIMURIUM, Strain/Indicator: TA100, Metabolic Activation: RAT, LIVER, S-9, PCB, Method: PREINCUBATION", "value": "inactive; negative"}
    ]},
    {"compound": "CC(=O)N(O)c1ccc(Oc2ccccc2)cc1", "values": [
      {"measurement": "mutagenic call", "setting": "Test System: AMES SALMONELLA TYPHIMURIUM, Strain/Indicator: TA100, Metabolic Activation: GUINEA PIG, LIVER, S-9, KANECLOR 500, Method: STANDARD PLATE", "value": "active; positive"},
      {"measurement": "mutagenic call", "setting": "[2]", "value": "inactive; negative"},
      {"measurement": "mutagenic call", "setting": "Test System: AMES SALMONELLA TYPHIMURIUM, Strain/Indicator: TA100, Metabolic Activation: RAT, LIVER, S-9, KANECLOR 500, Method: STANDARD PLATE", "value": "active; positive"}
    ]},
    {"compound": "COCCl", "values": [
      {"measurement": "mutagenic call", "setting": "End Point: IN VITRO CHROMOSOMAL ABERRATIONS, Test System: CHL CELLS, Metabolic Activation: NONE", "value": "active; positive (structural and ploidy changes)"},
      {"measurement": "mutagenic call", "setting": "End Point: IN VITRO CHROMOSOMAL ABERRATIONS, Test System: CHL CELLS, Metabolic Activation: RAT, LIVER, S-9, SODIUM PHENOBARBITAL AND 5,6-BENZOFLAVONE", "value": "active; positive (structural changes)"}
    ]},
    {"compound": "Cc1ccc2c(c1)-c1ccccc1C2C", "note": "(stereo not given)", "values": [
      {"measurement": "mutagenic call", "setting": "[3]", "value": "active; positive"},
      {"measurement": "mutagenic call", "setting": "Test System: AMES SALMONELLA TYPHIMURIUM, Strain/Indicator: TA100, Metabolic Activation: RAT, LIVER, S-9, AROCLOR 1254, Method: STANDARD PLATE", "value": "active; positive"}
    ]},
    {"compound": "Cc1ccc([N+](=O)[O-])cc1NO", "values": [
      {"measurement": "mutagenic call", "setting": "Test System: AMES SALMONELLA TYPHIMURIUM, Strain/Indicator: TA98, Metabolic Activation: NONE, Method: SUSPENSION/PLATE", "value": "inactive; negative"},
      {"measurement": "mutagenic call", "setting": "Test System: AMES SALMONELLA TYPHIMURIUM, Strain/Indicator: TA98, Metabolic Activation: RAT, LIVER, S-9, PHENOBARBITAL AND 5,6-BENZOFLAVONE, Method: SUSPENSION/PLATE", "value": "inactive; negative"},
      {"measurement": "mutagenic call", "setting": "Test System: AMES SALMONELLA TYPHIMURIUM, Strain/Indicator: TA100, Metabolic Activation: NONE, Method: SUSPENSION/PLATE", "value": "inactive; negative"},
      {"measurement": "mutagenic call", "setting": "Test System: AMES SALMONELLA TYPHIMURIUM, Strain/Indicator: TA100, Metabolic Activation: RAT, LIVER, S-9, PHENOBARBITAL AND 5,6-BENZOFLAVONE, Method: SUSPENSION/PLATE", "value": "inactive; negative"}
    ]},
    {"compound": "O=[N+]([O-])c1c(O)ccc2c1[nH]c1ccccc12", "values": [
      {"measurement": "mutagenic call", "setting": "[1]", "value": "inactive; negative"},
      {"measurement": "mutagenic call", "setting": "[3]", "value": "inactive; negative"}
    ]}
  ]
}
